Patent US20220071993A1, “A VILAZODONE SOLID DISPERSION AND PREPARATION METHOD THEREOF” (SUNSHINE LAKE PHARMA CO., LTD., priority 2018, published 2022)
Where a name gives a salt, the structure may show the parent alone. Read-outs that look alike come from different tables or passages of the source.

Tests used:
[1] = cited from earlier work
[2] = Dissolution of vilazodone hydrochloride in acetone aqueous solution; assay type: physicochemical; conditions: 10 mg
Protocol: 10 mg of vilazodone hydrochloride solid powder was put into a 4 ml EP tube. 1 ml of acetone aqueous solution of different concentrations was added to each tube separately, and the tubes were sonicated in a water bath for 30 minutes. The dissolution of the powder was observed; if the powder was dissolved quickly, a small amount of powder was continued to add to increase the concentration of the sample and was dissolved ultrasonically; finally, the solution samples were placed at room temperature for 24 hours to observe whether there was precipitation.

[3] = Dissolution of vilazodone hydrochloride in methanol aqueous solution; assay type: physicochemical; conditions: 30 mg
Protocol: 30 mg of vilazodone hydrochloride solid powder was put into a 10 ml EP tube 3 ml of methanol aqueous solution of different concentrations was added to each tube separately, and the tubes were sonicated in a water bath for 30 minutes. The dissolution of the powders was observed; if the powder was dissolved quickly, a small amount of powder was continued to add to increase the concentration of the sample and was dissolved ultrasonically; finally, the solution samples were placed at room temperature for 24 hours to observe whether there was precipitation.

[4] = Dissolution of vilazodone in different organic solvents; assay type: physicochemical; conditions: 10 mg/ml, sonicated 30 min, room temperature 24 h
Protocol: (§1) 10 mg of vilazodone hydrochloride solid powder was put into a 4 ml EP tube. 1 ml of dichloromethane, methanol, ethanol, acetone and ethyl acetate was added to each tube separately, and the tubes were sonicated in a water bath for 30 minutes. The dissolution of the powder was observed; after the samples were placed at room temperature for 24 h, the appearance of the samples was observed and whether there was precipitation was noted.

[5] = Dissolution of vilazodone hydrochloride in ethanol aqueous solution; assay type: physicochemical; conditions: 10 mg
Protocol: as §1, with “ethanol aqueous solution of different concentrations” for “dichloromethane, methanol, ethanol, acetone and ethyl acetate”

Phenomenon (dissolution) ([2]; Acetone 0.1 ml + Water 0.9 ml): Insoluble, a lot of precipitation
Phenomenon (dissolution) ([2]; Acetone 0.2 ml + Water 0.8 ml): Insoluble, a lot of precipitation
Phenomenon (dissolution) ([2]; Acetone 0.3 ml + Water 0.7 ml): Insoluble, a lot of precipitation
Phenomenon (dissolution) ([2]; Acetone 0.9 ml + Water 0.1 ml): Insoluble, a lot of precipitation
Result (dissolution) ([3]; Methanol 0.3 ml + Water 2.7 ml): Insoluble, a lot of precipitation
Result (dissolution) ([3]; Methanol 0.6 ml + Water 2.4 ml): Insoluble, a lot of precipitation
Result (dissolution) ([3]; Methanol 0.9 ml + Water 2.1 ml): Insoluble, a lot of precipitation
Result (dissolution) ([3]; Methanol 1.2 ml + Water 1.8 ml): Insoluble, a lot of precipitation
Phenomenon (dissolution) ([4]; Acetone): Insoluble, a little of precipitation
Phenomenon (dissolution) ([4]; Dichloromethane): Insoluble, a lot of precipitation
Phenomenon (dissolution) ([4]; Ethanol): Insoluble, a little of precipitation
Phenomenon (dissolution) ([4]; Ethyl acetate): Insoluble, a lot of precipitation
Phenomenon (dissolution) ([4]; Methanol): Insoluble, a little of precipitation
Phenomenon (dissolution) ([5]; Ethanol 0.1 ml + Water 0.9 ml): Insoluble, a lot of precipitation
Phenomenon (dissolution) ([5]; Ethanol 0.2 ml + Water 0.8 ml): Insoluble, a lot of precipitation
Phenomenon (dissolution) ([5]; Ethanol 0.3 ml + Water 0.7 ml): Insoluble, a lot of precipitation
Phenomenon (dissolution) ([5]; Ethanol 0.4 ml + Water 0.6 ml): Dissolved, precipitate after 1 day
Phenomenon (dissolution) ([5]; Ethanol 0.6 ml + Water 0.4 ml): Dissolved, precipitate after 1 day
Phenomenon (dissolution) ([5]; Ethanol 0.8 ml + Water 0.2 ml): Insoluble, a lot of precipitation
Phenomenon (dissolution) ([5]; Ethanol 0.9 ml + Water 0.1 ml): Insoluble, a lot of precipitation
Structure (SMILES): N#Cc1ccc2[nH]cc(CCCCN3CCN(c4ccc5oc(C(N)=O)cc5c4)CC3)c2c1 [vilazodone hydrochloride, 5-{4-[4-(5-cyano-3-indole)-butyl]-1-piperazinyl}-coumarone-2-carboxamide]
solubility ([1]; environment with pH 3.1): a certain solubility
solubility ([1]; gastric juice (pH 1.2) and intestinal juice (pH 4.5 to 6.8)): poor solubility
